Measurements published in the OligoGym collection.
“And” between values parts separate entries of the source, which are not always exact repeats. Equal entries are not always repeated. After the bases stand the sugars from the 5' end (letter, count) and the backbone: PS all phosphorothioate, else s phosphorothioate and o phosphodiester by linkage. Methylation of C is not given here. e = 2'-O-(2-methoxyethyl) (MOE); k = constrained ethyl (cEt); d = 2'-deoxy (DNA)

Molecular target: IRF5
Conditions: ASO

Row | Sequence | target mRNA inhibition (KARPAS-229, 4 µM) | other results
1 | CCAATTTTGCATTCCA (sugars kkdddddddddkekek, PS) | 11% | 
2 | CATTCCATATACACAC (sugars k2 d8 e4 k2, PS) | 21% | 
3 | GCACTGACACAGGCGG (sugars kkddddddddkekekk, PS) | 0% | 
4 | AGCTTGGTCTTGACCT (sugars kkddddddddddkeke, PS) | 0% | 
5 | TAGGACGAGTTATGGG (sugars k3 d10 k3, PS) | 25% | 
6 | GCTGTCACATCTCCAC (sugars kkkdddddddddkeke, PS) | 3% | 
7 | AGATGGTGTTATCTCC (sugars k3 d9 k3 e1, PS) | 0% | 
8 | CTGTCACATCTCCACA (sugars kkdddddddddkdkdk, PS) | 6% | 
9 | GGTCTTGACCTCCCGC (sugars kkkddddddddkekek, PS) | 29% | 
10 | GAGTCATGGGCTGAGG (sugars kkddddddddkekekk, PS) | 0% | 
11 | GTTCTTGGACTCTCAA (sugars k2 d9 e3 k2, PS) | 22% | 
12 | CCCAATGCAACATCCA (sugars kdddddddddkekeke, PS) | 0% | 
13 | CAGGTTCTTGGACTCT (sugars kkkddddddddkdkdk, PS) | 0% | 
14 | GGTCTGGCCCTTTTGG (sugars kekdddddddddeekk, PS) | 13% | 
15 | GGAAGTGAGTCTCAAA (sugars k2 d9 e3 k2, PS) | 32% | 
16 | AATAGGAGTGAGACGA (sugars k3 d10 k3, PS) | 25% | 
17 | GGTGTATTTCCCTGTC (sugars kkkddddddddkdkdk, PS) | 1% | 
18 | CATTCTATGCCTTTTA (sugars kkddddddddkekekk, PS) | 56% | 
19 | TGTCTAGTGTCATGGA (sugars kkddkddddddeeekk, PS) |  | target mRNA inhibition (A-431, 0.00412 µM): 0%; target mRNA inhibition (A-431, 0.01225 µM): 0%; target mRNA inhibition (A-431, 0.03704 µM): 9%; target mRNA inhibition (A-431, 0.11111 µM): 17%; target mRNA inhibition (A-431, 0.33333 µM): 13%; target mRNA inhibition (A-431, 1 µM): 29%
20 | TCCAATTTTGCATTCC (sugars kkddddddddkekekk, PS) | 15% | 
21 | TATCTCCGTCCTGGCT (sugars kdddddddddkekeke, PS) | 0% | 
22 | AAGGGCACAGCGCAGG (sugars kkkddddddddkekek, PS) | 0% | 
23 | CCCAATGCAACATCCA (sugars kkddddddddkekekk, PS) | 0% | 

Row | Sequence | target mRNA inhibition (KARPAS-229, 4 µM) | other results
24 | TGCACTGACACAGGCG (sugars kkdddddddddkekek, PS) | 0% | 
25 | CAGGTTCTTGGACTCT (sugars kkdddddddddkekek, PS) | 0% | 
26 | ATCACCACTGTGTACC (sugars kdddddddddkekeke, PS) | 0% | 
27 | TGTCTAGTGTCATGGA (sugars kkddddddddkekekk, PS) | 10% | 
28 | CCTTCTGCAGGGAGTC (sugars kkdddddddddkekek, PS) | 0% | 
29 | GCTTGGTCTTGACCTC (sugars kekdddddddddeekk, PS) | 46% | 
30 | GCACTGACACAGGCGG (sugars kdddddddddkekeke, PS) | 0% | 
31 | GTTATCTCCGTCCTGG (sugars k3 d10 k3, PS) | 31% | 
32 | CCAATGCAACATCCAT (sugars kkddddddddddkeke, PS) | 0% | 
33 | GGTCTTGACCTCCCGC (sugars kkkddddddddkdkdk, PS) | 4% | 
34 | GGAGTGAGACGAGCAA (sugars kkddddddddddkeke, PS) | 33% | 
35 | GCTGTCACATCTCCAC (sugars kkddddddddkekekk, PS) | 29% | 
36 | GTCTGGCCCTTTTGGA (sugars k3 d9 k3 e1, PS) | 0% | 
37 | CATCTCCACATCAGTC (sugars kddddddddddkekek, PS) | 25% | 
38 | TGCTCTAAACCATTCT (sugars k3 d10 k3, PS) | 0% | 
39 | GCTTGGTCTTGACCTC (sugars k2 d9 e3 k2, PS) | 10% | 
40 | AGGTTCTTGGACTCTC (sugars kkddddddddddkeke, PS) | 41% | 
41 | AAGGGCACAGCGCAGG (sugars kekdddddddddeekk, PS) | 0% | 
42 | GTCTTTGAGGTCTGGG (sugars kddddddddddkekek, PS) | 0% | 
43 | GGTCTTTGAGGTCTGG (sugars kkddddddddddkeke, PS) | 67% and 63% | target mRNA inhibition (KARPAS-229, 0.44444 µM): 39%; target mRNA inhibition (KARPAS-229, 1.33333 µM): 43%; target mRNA inhibition (KARPAS-229, 12 µM): 72%
44 | TTATTTCTGCTCCAGG (sugars kkkddddddddkdkdk, PS) | 57% and 67% | target mRNA inhibition (KARPAS-229, 0.44444 µM): 42%; target mRNA inhibition (KARPAS-229, 1.33333 µM): 62%; target mRNA inhibition (KARPAS-229, 12 µM): 79%
45 | GTGAGTCTCAAACCAG (sugars kkkddddddddkekek, PS) | 0% | 
46 | GTCTGGCCCTTTTGGA (sugars kkdddddddddkdkdk, PS) | 0% | 

Row | Sequence | target mRNA inhibition (KARPAS-229, 4 µM) | other results
47 | ATCACCACTGTGTACC (sugars kkkddddddddkekek, PS) | 0% | 
48 | CAGGTTCTTGGACTCT (sugars kddddddddddkekek, PS) | 0% | 
49 | CCCAATGCAACATCCA (sugars kkkddddddddkekek, PS) | 0% | 
50 | CCTTCTGCAGGGAGTC (sugars kkkddddddddkdkdk, PS) | 0% | 
51 | AATTTTGTGACTGTAT (sugars k3 d10 k3, PS) | 0% | 
52 | CCTCATGAGTAATAGG (sugars k3 d10 k3, PS) | 0% | 
53 | CACATCTCCACATCAG (sugars kkddddddddddkeke, PS) | 23% | 
54 | TTGTCTAGTGTCATGG (sugars kddddddddddkekek, PS) | 44% | 
55 | TATTTCTGCTCCAGGT (sugars kkddddddddddkeke, PS) | 49% and 71% | target mRNA inhibition (KARPAS-229, 0.44444 µM): 40%; target mRNA inhibition (KARPAS-229, 1.33333 µM): 53%; target mRNA inhibition (KARPAS-229, 12 µM): 79%
56 | ATGAGTCATGGGCTGA (sugars kkkdddddddddkeke, PS) | 9% | 
57 | CCACTGTGTACCCCAT (sugars kkdddddddddkdkdk, PS) | 54% | 
58 | GGTTCTTGGACTCTCA (sugars kddddddddddkekek, PS) | 9% | 
59 | AAGGGCACAGCGCAGG (sugars kkkdddddddddkeke, PS) | 0% | 
60 | GGTCTGGCCCTTTTGG (sugars kkddddddddkekekk, PS) | 0% | 
61 | GGGCACAGCGCCAGGTT (sugars kddddddddddkekekd, PS) | 37% and 62% | target mRNA inhibition (KARPAS-229, 0.44444 µM): 23%; target mRNA inhibition (KARPAS-229, 1.33333 µM): 40%; target mRNA inhibition (KARPAS-229, 12 µM): 87%
62 | AGTCATGGGCGTGAGGC (sugars kdddddddddkekeked, PS) | 17% | 
63 | TGAGTCATGGGCTGAG (sugars k3 d9 k3 e1, PS) | 11% | 
64 | AATTTTGCATTCCATA (sugars k3 d10 k3, PS) | 41% | 
65 | CAGGTTCTTGGACTCT (sugars kekdddddddddeekk, PS) | 48% and 62% | target mRNA inhibition (KARPAS-229, 0.44444 µM): 34%; target mRNA inhibition (KARPAS-229, 1.33333 µM): 48%; target mRNA inhibition (KARPAS-229, 12 µM): 74%
66 | TACCCAATGCAACATC (sugars k3 d10 k3, PS) | 0% | 
67 | AGGAGTGAGACGAGCA (sugars kkkddddddddkekek, PS) | 24% | 
68 | CACTGACACAGGCGGA (sugars kkdddddddddkekek, PS) | 0% | 
